Tests used:
[1] = test system: fungal diseases and insects of peach trees; assay: Antiviral, anti-fungus, anti-insect activity in peach trees; assay type: in vivo
Experimental: 240 Peach trees were divided into 4 groups. All field operations concerning land preparation and the uses of fertilizers were same for all groups. Group A (n=60) was control group with no chemical treatments. Group B (n=60) was normal fungicides and insecticides-treated group. Group C (n=60) was treated with N,N-diethylaminoethyl acetylsalicylate plus some insecticides. Group D (n=60) was N,N-diethylaminoethyl acetylsalicylate and N,N-diethylaminoethyl jasmonate.citric acid treated group. In group A, Peach Leaf Curl, Peach Scab, Brown Rot, Black Knot and other fungal diseases were found and different scale insects, Shothole Borer, Peach tree Borer, Lesser Peachtree Borer, fruit Moth and other diseases and insects were found. No any good (edible) fruits were harvested. In group B, 100 g of ferbam [iron tris(dimethyldithiocarbamate)] […] Group C was N,N-diethylaminoethyl acetylsalicylate-treated group. 50 g of N,N-diethylaminoethyl acetylsalicylate in 50 kg of water was applied to the group C Peach trees on November 15, March 1, March 20, and June 20, 50 g of N,N-diethylaminoethyl acetylsalicylate, 125 g of Malathion 50% EC, 125 g of 1-naphthyl methylcarbamate 50% WP and 60 g of thiophanate-methyl 50% WP in 50 kg of water was applied to the group C peach trees on April 1, April 20, May 10, and May 30. Yield 3000 kg of good (edible) peaches. […]

[2] = test system: diseases and insects of rice; assay: Antiviral, anti-fungus, anti-insect activity in rice; assay type: in vivo
[3] = Amount of salicylic acid in rat cerebrospinal fluid (CSF), 0.3 mmol/kg; assay type: in vivo, rats
Experimental: 27 male rats were divided into 4 groups […]. […] Amounts of salicylic acid in rat CSF were determined.

Structure (SMILES): CCN(CC)CCOC(=O)c1ccccc1OC(C)=O.Cl [P-1, diethylaminoethyl acetylsalicylate.HCl salt]
- Yield of good (edible) peaches ([1]; 60 trees per group, some insecticides/fungicides co-applied): 3000 kg
- harvest dates earlier ([1]; groups C and D): 1 week
- Yield of good rice ([2]; 1/2 acre per group, imidacloprid co-applied in group C): 1800 kg
- harvest dates earlier ([2]; group C and D): 5 days
- salicylic acid in CSF ([3]; intramuscularly, 1 hour): 36.4 ± 4.3 nmol/g
- salicylic acid in CSF ([3]; intramuscularly, 8 hours): 28.2 ± 6.5 nmol/g
- salicylic acid in CSF ([3]; intramuscularly, 18 hours): 15.1 ± 4.7 nmol/g
- salicylic acid in CSF ([3]; transdermally, 1 hour): 38 ± 17 nmol/g
- salicylic acid in CSF ([3]; transdermally, 8 hours): 28.4 ± 7.5 nmol/g
- salicylic acid in CSF ([3]; transdermally, 18 hours): 22.3 ± 5.4 nmol/g

From patent US11541029B2, “High penetration compositions and their applications” (Techfields Pharma Co., Ltd., priority 2008, dated 2023)
